For assay [1], the target named is T1, NHE3 (Homo sapiens, UniProt P48764).
T1 construct: expressed in transfected cells
T1 sequence (P48764 26-834): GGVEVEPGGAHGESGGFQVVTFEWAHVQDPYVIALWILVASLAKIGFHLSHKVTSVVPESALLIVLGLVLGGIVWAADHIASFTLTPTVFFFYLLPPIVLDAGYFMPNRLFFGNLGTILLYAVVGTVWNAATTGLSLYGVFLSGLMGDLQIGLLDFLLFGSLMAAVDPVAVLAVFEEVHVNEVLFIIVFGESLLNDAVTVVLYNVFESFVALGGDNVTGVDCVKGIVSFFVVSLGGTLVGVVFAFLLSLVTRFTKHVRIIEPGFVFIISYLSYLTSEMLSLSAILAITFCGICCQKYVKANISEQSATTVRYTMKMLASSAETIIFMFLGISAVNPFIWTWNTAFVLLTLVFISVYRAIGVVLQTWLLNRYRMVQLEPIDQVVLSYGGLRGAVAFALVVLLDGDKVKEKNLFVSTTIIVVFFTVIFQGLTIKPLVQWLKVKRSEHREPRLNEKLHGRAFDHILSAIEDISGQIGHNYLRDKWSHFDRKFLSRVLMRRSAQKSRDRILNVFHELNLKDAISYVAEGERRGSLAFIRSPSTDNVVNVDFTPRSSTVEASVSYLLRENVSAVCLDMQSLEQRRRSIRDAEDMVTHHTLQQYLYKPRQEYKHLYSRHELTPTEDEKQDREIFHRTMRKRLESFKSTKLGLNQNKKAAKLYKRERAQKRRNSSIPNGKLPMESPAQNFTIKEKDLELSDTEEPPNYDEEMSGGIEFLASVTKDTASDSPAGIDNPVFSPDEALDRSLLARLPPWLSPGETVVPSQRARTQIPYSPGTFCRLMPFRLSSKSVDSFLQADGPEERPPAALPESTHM
T1 sequence (Q99653 2-195 partner limits assumed): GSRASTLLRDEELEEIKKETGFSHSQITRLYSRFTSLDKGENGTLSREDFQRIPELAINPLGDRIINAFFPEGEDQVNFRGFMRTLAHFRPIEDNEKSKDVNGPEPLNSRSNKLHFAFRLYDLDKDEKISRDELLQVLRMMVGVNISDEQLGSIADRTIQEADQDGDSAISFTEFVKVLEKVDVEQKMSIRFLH
As to the kind of experiment: Cell-based assay of NHE-3 activity (pre-incubation inhibition), human. The conditions noted are these: human Preincubation; for pIC50: 0-30 μM test compound. A digest of the protocol: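 PS120 fibroblasts stably expressing human NHE3 and NHERF2, loaded 30 min at 37 °C with 5 μM BCECF-AM in NH4Cl buffer, then acidified 10 min at room temperature in Na+-free buffer with 0–30 μM compound. Initial rate of BCECF fluorescence ratio change (FLIPR) per minute taken as Na+/H+ activity.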

In assay [2] the test system is human duodenum monolayer culture. As to the kind of experiment: Sustained inhibition of apical acid secretion in human organoid monolayer cell cultures (duodenum). In kind it is cell-based. The conditions noted are these: Homo sapiens. Here is the method:
Basal media (BM) consisted of advanced DMEM/F12 containing 10 mM HEPES Invitrogen, 15630-080), 1:100 Glutamax (Invitrogen, 35050-061), and 1:100 penicillin/streptomycin (Invitrogen, 15140-122). Supplemented basal media (SBM) contained 1:100 N2 (Invitrogen, 17502-048), 1:50 B27 (Invitrogen, 12587-010), 1 mM N-acetylcysteine (Sigma, A9165), and 10 nM [Leu15]-gastrin I (Sigma, G9145). Growth factors used included 50 ng per mL mouse EGF (Peprotech, 315-09), 100 ng per mL mouse noggin (Peprotech, 250-38), 500 ng per mL human R-spondin 1 (R&D, 4645-RS), 100 ng per mL mouse Wnt-3a (R&D, 1324-WN), 20 μM. Y-27632 (Tocris, 1254), 10 mM nicotinamide (Sigma, N0636), 500 nM A83-01 (Tocris, 2939), 10 μM SB202190 (Tocris, 1264). Transwells were 0.4 μm pore polyester membrane 24-well Transwell inserts (Corning). Cultures were incubated at 37° C. in 5% CO2.
Each human ileum monolayer culture well was washed twice with fresh SBM on the apical side on day 6 before compound dosing. All compound stocks were 10 mM dissolved in DMSO. Each compound stock was individually mixed with fresh SBM to reach final compound concentration 1 μM and dosed only on the apical side of the monolayer (total volume 200 μl). DMSO at the equivalent concentration was used as the vehicle control. Duplicate wells were dosed for each compound. On day 8, apical media pH was measured by pH electrode, to determine the ability of example compounds to produce sustained inhibition of NHE3 activity in a human monolayer culture system by preventing proton secretion into the apical compartment.
Human duodenum organoids were cultured in WENRNAS (Wnt, EGF, noggin, R-spondin1, Nicotinamide, A83-01, SB202190) and typically grown for 7-12 days before being used to plate monolayer cultures. On day 0, organoid cultures embedded in Matrigel were treated with TrypLE Express to break organoids into small pieces and/or single cells. The cells were resuspended to 0.5×10^6 cells/mL in SBM containing WENRAY (Wnt, EGF, noggin, R-spondin1, A83-01, Y-27632). Following this step, 200 μL of cell suspension was plated into the apical side of a 24-well Transwell (100,000 cells/well) and 600 μL of SBM with WENRAY was added to the basolateral side. Duodenum cells were differentiated with ENA (EGF, noggin, A83-01) on day 3. The color of apical compartment turns from pink or orange to yellow due to the increase in NHE3 expression after differentiation.

Molecules are shown by their SMILES.

The term inhibition denotes the percentage by which the read-out fell short of the control. For the molecule `Cc1cc(S(=O)(=O)NCCOCCOCCNC(=O)NCCCCNC(=O)NCCOCCOCCNS(=O)(=O)c2ccc(O[C@H]3c4cc(Cl)cc(Cl)c4C[C@@H]3N3CCNCC3)c(C)c2)ccc1O[C@H]1c2cc(Cl)cc(Cl)c2C[C@@H]1N1CCNCC1` [Example 32, 3-[2-(2-[2-[(4-[[(1S,2S)-4,6-Dichloro-2-(piperazin-1-yl)-2,3-dihydro-1H-inden-1-yl]oxy]-3-methylbenzene)sulfonamido]ethoxy]ethoxy)ethyl]-1-[4-([[2-(2-[2-[(4-[[(1S,2S)-4,6-dichloro-2-(piperazin-1-yl)-2,3-dihydro-1H-inden-1-yl]oxy]-3-methylbenzene)sulfonamido]ethoxy]ethoxy)ethyl]carbamoyl]amino)butyl]urea; bis(trifluoroacetic acid)], in assay [1], the “% inhibition” value is “C (>70%)” and the pIC50 entry is given as “C (NHE3 pIC50 > 7)”. Moreover, the inhibition at 1 µM in assay [2] was more than 70%.

With `O=C(NCCCCNC(=O)NCCOCCOCCNS(=O)(=O)c1ccc(O[C@H]2c3cc(Cl)cc(Cl)c3C[C@@H]2N2CCNCC2)c(F)c1)NCCOCCOCCNS(=O)(=O)c1ccc(O[C@H]2c3cc(Cl)cc(Cl)c3C[C@@H]2N2CCNCC2)c(F)c1` [Example 33, 3-[2-(2-[2-[(4-[[(1S,2S)-4,6-Dichloro-2-(piperazin-1-yl)-2,3-dihydro-1H-inden-1-yl]oxy]-3-fluorobenzene)sulfonamido]ethoxy]ethoxy)ethyl]-1-[4-[[(2-(2-[2-[(4-[[(1S,2S)-4,6-dichloro-2-(piperazin-1-yl)-2,3-dihydro-1H-inden-1-y]oxy]-3-fluorobenzene)sulfonamido]ethoxy]ethoxy)ethyl]carbamoyl]amino)butyl]urea; bis(trifluoroacetic acid)], the “% inhibition” value in assay [1] is on record as “C (>70%)”. The molecule also displayed an inhibition at 1 µM in assay [2] of more than 70%.

As for `Cc1cc(Cl)cc2c1C[C@H](N1CCNCC1)[C@H]2Oc1ccc(S(=O)(=O)NCCOCCOCCNC(=O)NCCCCNC(=O)NCCOCCOCCNS(=O)(=O)c2ccc(O[C@H]3c4cc(Cl)cc(C)c4C[C@@H]3N3CCNCC3)cc2)cc1` [Example 34, 3-[2-(2-[2-[(4-[[(1S,2S)-6-Chloro-4-methyl-2-(piperazin-1-yl)-2,3-dihydro-1H-inden-1-yl]oxy]benzene)sulfonamido]ethoxy]ethoxy)ethyl]-1-[4-([[2-(2-[2-[(4-[[(1S,2S)-6-chloro-4-methyl-2-(piperazin-1-yl)-2,3-dihydro-1H-inden-1-yl]oxy]benzene)sulfonamido]ethoxy]ethyl)ethyl]carbamoyl]amino)butyl]urea; bis(trifluoroacetic acid)], the “% inhibition” value in assay [1] is given as “C (>70%)”. The inhibition at 1 µM in assay [2] is 50 to 70%.

Take `Cc1cc(S(=O)(=O)NCCOCCOCCNC(=O)NCCCCNC(=O)NCCOCCOCCNS(=O)(=O)c2ccc(O[C@H]3c4cc(Cl)cc(C)c4C[C@@H]3N3CCNCC3)c(C)c2)ccc1O[C@H]1c2cc(Cl)cc(C)c2C[C@@H]1N1CCNCC1` [Example 35, 3-[2-(2-[2-[(4-[[(1S,2S)-6-Chloro-4-methyl-2-(piperazin-1-yl)-2,3-dihydro-1H-inden-1-yl]oxy]-3-methylbenzene)sulfonamido]ethoxy]ethoxy)ethyl]-1-[4-([[2-(2-[2-[(4-[[(1S,2S)-6-chloro-4-methyl-2-(piperazin-1-yl)-2,3-dihydro-1H-inden-1-yl]oxy]-3-methylbenzene)sulfonamido]ethoxy]ethoxy)ethyl]carbamoyl]amino)butyl]urea; bis(trifluoroacetic acid)]: in assay [1], the “% inhibition” value is “C (>70%)” and the pIC50 result was “C (NHE3 pIC50 > 7)”. The molecule also registered an inhibition at 1 µM in assay [2] of more than 70%.

For the molecule `Cc1cc(Cl)cc2c1C[C@H](N1CCNCC1)[C@H]2Oc1ccc(S(=O)(=O)NCCOCCOCCNC(=O)NCCCCNC(=O)NCCOCCOCCNS(=O)(=O)c2ccc(O[C@H]3c4cc(Cl)cc(C)c4C[C@@H]3N3CCNCC3)c(F)c2)cc1F` [Example 36, 3-[2-(2-[2-[(4-[[(1S,2S)-6-Chloro-4-methyl-2-(piperazin-1-yl)-2,3-dihydro-1H-inden-1-yl]oxy]-3-fluorobenzene)sulfonamido]ethoxy]ethoxy)ethyl]-1-[4-([[2-(2-[2-[(4-[[(1S,2S)-6-chloro-4-methyl-2-(piperazin-1-yl)-2,3-dihydro-1H-inden-1-yl]oxy]-3-fluorobenzene)sulfonamido]ethoxy]ethoxy)ethyl]carbamoyl]amino)butyl]urea; bis(trifluoroacetic acid)], in assay [1], the “% inhibition” value is “C (>70%)” and the pIC50 result was “C (NHE3 pIC50 > 7)”. Moreover, the inhibition at 1 µM in assay [2] is more than 70%.

As for `N#Cc1cc(Cl)cc2c1C[C@H](N1CCNCC1)[C@H]2Oc1ccc(S(=O)(=O)NCCOCCOCCNC(=O)NCCCCNC(=O)NCCOCCOCCNS(=O)(=O)c2ccc(O[C@H]3c4cc(Cl)cc(C#N)c4C[C@@H]3N3CCNCC3)cc2)cc1` [Example 41, 3-[2-(2-[2-[(4-[[(1S,2S)-6-Chloro-4-cyano-2-(piperazin-1-yl)-2,3-dihydro-1H-inden-1-yl]oxy]benzene)sulfonamido]ethoxy]ethoxy)ethyl]-1-[4-([[2-(2-[2-[(4-[[(1S,2S)-6-chloro-4-cyano-2-(piperazin-1-yl)-2,3-dihydro-1H-inden-1-yl]oxy]benzene)sulfonamido]ethoxy]ethoxy)ethyl]carbamoyl]amino)butyl]urea; bis(trifluoroacetic acid)], in assay [1], the “% inhibition” value was “C (>70%)” and the pIC50 result is recorded as “C (NHE3 pIC50 > 7)”. Moreover, in assay [2], the inhibition at 1 µM is more than 70%.

With `Cc1cc(S(=O)(=O)NCCOCCOCCNC(=O)NCCCCNC(=O)NCCOCCOCCNS(=O)(=O)c2ccc(O[C@H]3c4cc(Cl)cc(C#N)c4C[C@@H]3N3CCNCC3)c(C)c2)ccc1O[C@H]1c2cc(Cl)cc(C#N)c2C[C@@H]1N1CCNCC1` [Example 42, 3-[2-(2-[2-[(4-[[(1S,2S)-6-Chloro-4-cyano-2-(piperazin-1-yl)-2,3-dihydro-1H-inden-1-yl]oxy]-3-methylbenzene)sulfonamido]ethoxy]ethoxy)ethyl]-1-[4-([[2-(2-[2-[(4-[[(1S,2S)-6-chloro-4-cyano-2-(piperazin-1-yl)-2,3-dihydro-1H-inden-1-yl]oxy]-3-methylbenzene)sulfonamido]ethoxy]ethoxy)ethyl]carbamoyl]amino)butyl]urea; bis(trifluoroacetic acid)], in assay [1], the “% inhibition” value is on record as “C (>70%)” and the pIC50 entry is reported as “C (NHE3 pIC50 > 7)”. Moreover, in assay [2], the inhibition at 1 µM is more than 70%.

For the origin of these results see US11242337B2, “Compounds useful for treating gastrointestinal tract disorders” (Ardelyx, Inc., priority 2017, dated 2022).
